In US8258138B2, “Potassium channel blockers” (Xention Limited, priority 2008, dated 2012):

Target: T1, human Kv1.3 (Homo sapiens, UniProt P22001)
T1 construct: expressed in transfected cells; host or cells: stably transfected cells grown in medium for CHO cells
Test: Kv1.3 Autopatch electrophysiology (whole cell patch-clamp, inhibition of charge movement)
Format: cell-based
Conditions: compound at 1 μM, cells stably transfected with human Kv1.3, room temperature, total charge during step to +30 mV relative to control; for inhibition at 1 µM: read-out: hKv1.3 % inh.
Protocol: Kv1.3 Autopatch Electrophysiology Method
Compounds were tested on these cells using the AutoPatch technology in whole cell mode.
The external bathing solution contained (in mM): 150 NaCl, 10 KCl, 1 MgCl2, 3 CaCl2, 10 HEPES, pH 7.4 with NaOH. Patch pipettes were filled with an electrode solution of composition (in mM): 100 K-Gluconate, 20 KCl, 1 MgCl2, 1 CaCl2, 10 HEPES, 11 EGTA, 5 ATP-Na2, 2 Glutathione pH 7.2 with KOH.
Compounds were dissolved in DMSO (100%) and made up in the external bather at a concentration of 1 μM immediately prior to use. All experiments were conducted at room temperature.
A cell suspension (10 ml), with a density of 6×10^6 cells, was aliquoted into a 15 ml centrifuge tube and stored at 4° C. before use. Prior to use a tube was taken and centrifuged at 1000 rpm for 4 mins at room temperature. The supernatant was then discarded, leaving a cell pellet at the bottom of the tube. The pellet was then resuspended using 1 ml of cold (4° C.), filtered (0.22 μm), 0.05% BSA/bather solution (0.05 g BSA/100 ml bather). The bottom of the tube was manually agitated followed by gentle tituration. The cell suspension was then placed in the AutoPatch™ temperature controlled cell-hotel at 14° C. and regularly titurated.
A length of Teflon capillary tubing was dipped into the cell suspension solution, and a column of fluid was taken up by negative pressure. The column of fluid was in electrically connectivity with a Ag/AgCl reference electrode. Borosilicate glass patch pipettes (from 1.5 mm OD, thin-walled filamented, GC150-TF capillary glass, Harvard) were pulled using a DMZ pipette puller (Zeitz Instruments), and were back-filled using the internal pipette solution, being careful that no bubbles remained at the tip or in the body of the pipette. Patch pipettes typically had resistances of 2.5-3.5 MΩ. Once filled, the pipette tip and a proportion of the shaft (˜15 mm) were dipped into Sigmacote (Sigma). The recording pipettes were placed in a multiwell array and mounted on the AutoPatch™ machine. Automated patch-clamping and drug-application was initiated by the operator, but thereafter AutoPatch.exe continued the experiment providing that pre-set conditions and criteria were satisfied.
Whole cell patch-clamp recordings were made using the AutoPatch™ rig, which incorporated an EPC9 or EPC10 amplifier (HEKA, Germany) under control of Pulse software (v8.54 or v8.76, HEKA, Germany), a cell applicator, automated drug application system (DAS), valve controller (VF1) and a suction device all at room temperature. This equipment was completely under the control of AutoPatch.exe and operator intervention was only made when there was a requirement to refill the bather reservoirs or to prevent the loss of a cell due to a technical error.
Cells were continuously perfused with external solution at a flow rate of ˜2 ml/minute.
Electrophysiology voltage-step protocols and analysis of data was performed as follows. Data were sampled at 5 kHz, and filtered with a −3 dB bandwidth of 2.5 kHz. Cells were held at a voltage of −80 mV. Currents were evoked by a voltage step to +30 mV for 500 ms in duration applied every 15 s. Online analysis of the hKv1.3 current during the application of compounds was performed by the Pulse (v8.54 or v8.76, HEKA, Germany), Excel (Microsoft, USA) and AutoPatch™ software, with the total charge measured during the whole of voltage step. Inhibition of charge movement in the presence of drug was calculated relative to control.

T1 sequence (P22001 whole entry): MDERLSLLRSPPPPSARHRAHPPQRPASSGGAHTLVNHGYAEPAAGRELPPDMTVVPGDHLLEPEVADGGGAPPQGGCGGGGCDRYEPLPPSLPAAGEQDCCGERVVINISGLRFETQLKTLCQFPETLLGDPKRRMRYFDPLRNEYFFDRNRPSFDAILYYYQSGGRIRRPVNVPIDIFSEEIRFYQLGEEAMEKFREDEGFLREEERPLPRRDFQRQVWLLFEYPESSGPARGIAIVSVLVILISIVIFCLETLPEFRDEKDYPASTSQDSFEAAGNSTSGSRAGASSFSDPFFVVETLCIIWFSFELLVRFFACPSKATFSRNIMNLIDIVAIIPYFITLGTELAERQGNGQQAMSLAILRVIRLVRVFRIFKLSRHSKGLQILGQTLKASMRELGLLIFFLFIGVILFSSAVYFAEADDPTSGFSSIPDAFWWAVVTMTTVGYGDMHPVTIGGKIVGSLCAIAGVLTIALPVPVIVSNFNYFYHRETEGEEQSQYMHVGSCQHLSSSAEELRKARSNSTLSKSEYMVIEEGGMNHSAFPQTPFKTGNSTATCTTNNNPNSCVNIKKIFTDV

inhibition at 1 µM [%] | Molecule | hKv1.3 % inh. [%]
55 | Cc1cccc(S(=O)(=O)N(Cc2ccccc2)c2ccc(C(=O)N3CCN(c4ccccc4)CC3)cc2)c1 [Example 27, N-Benzyl-3-methyl-N-[4-(4-phenyl-piperazine-1-carbonyl)-phenyl]-benzenesulfonamide] | 
38 | CN1CCN(C(=O)c2ccc(N(Cc3ccccc3)S(=O)(=O)c3cn(C)cn3)cc2)CC1 [Example 7, 1-Methyl-1H-imidazole-4-sulfonic acid benzyl-[4-(4-methyl-piperazine-1-carbonyl)-phenyl]-amide] | 
52 | CC1CCCN(C(=O)c2ccc(N(Cc3ccc(F)cc3)S(=O)(=O)c3cn(C)cn3)cc2)C1 (stereo not drawn) [Example 94, 1-Methyl-1H-imidazole-4-sulfonic acid (4-fluoro-benzyl)-[4-(3-methyl-piperidine-1-carbonyl)-phenyl]-amide] | 
76 | N#Cc1ccc(CN(c2ccc(C(=O)N3CCN(c4ccccc4)CC3)cc2)S(=O)(=O)c2ccccc2)cc1 [Example 2, N-(4-Cyano-benzyl)-N-[4-(4-phenyl-piperazine-1-carbonyl)-phenyl]-benzenesulfonamide] | 
 | 1-Methyl-1H-imidazole-4-sulfonic acid benzyl-[4-(3-phenyl-piperidine-1-carbonyl)-phenyl]-amide [Example 64] | 86
50 | Cc1ncc(S(=O)(=O)N(Cc2ccccc2)c2ccc(C(=O)N3CCN(c4ccccc4)CC3)cc2)n1C [Example 47, 2,3-Dimethyl-3H-imidazole-4-sulfonic acid benzyl-[4-(4-phenyl-piperazine-1-carbonyl)-phenyl]-amide] | 
51 | O=C(c1ccc(N(Cc2ccccc2)S(=O)(=O)c2ccc3ccccc3c2)cc1)N1CCN(c2ccccc2)CC1 [Example 13, Naphthalene-2-sulfonic acid benzyl-[4-(4-phenyl-piperazine-1-carbonyl)-phenyl]-amide] | 
39 | N#Cc1ccc(S(=O)(=O)N(Cc2ccccc2)c2ccc(C(=O)N3CCN(c4ccccc4)CC3)cc2)cc1 [Example 22, N-Benzyl-4-cyano-N-[4-(4-phenyl-piperazine-1-carbonyl)-phenyl]-benzenesulfonamide] | 
81 | CN1CCN(C(=O)c2ccc(N(Cc3ccccc3)S(=O)(=O)c3ccnn3C)cc2)CC1c1ccccc1 (stereo not drawn) [Example 91, 2-Methyl-2H-pyrazole-3-sulfonic acid benzyl-[4-(4-methyl-3-phenyl-piperazine-1-carbonyl)-phenyl]-amide] | 
57 | Cn1cnc(S(=O)(=O)N(Cc2ccccc2)c2ccc(C(=O)N3CCN(C(=O)OC(C)(C)C)C(c4ccccc4)C3)cc2)c1 (stereo not drawn) [Example 81, 4-{4-[Benzyl-(1-methyl-1H-imidazole-4-sulfonyl)-amino]-benzoyl}-2-phenyl-piperazine-1-carboxylic acid tert-butyl ester] | 
60 | CN(C)S(=O)(=O)N(Cc1ccccc1)c1ccc(C(=O)N2CCOC(c3ccccc3)C2)cc1 (stereo not drawn) [Example 6, N-Benzyl-N-[4-(2-phenyl-morpholine-4-carbonyl)-phenyl]-N′,N′-dimethylsulfamide] | 
89 | Cn1ccc(S(=O)(=O)N(Cc2ccccc2)c2ccc(C(=O)N3CCOC(c4ccccc4)C3)cc2)n1 (stereo not drawn) [Example 84, 1-Methyl-1H-pyrazole-3-sulfonic acid benzyl-[4-(2-phenyl-morpholine-4-carbonyl)-phenyl]-amide] | 
52 | CC1CCN(C(=O)c2ccc(N(Cc3ccc(Cl)cc3)S(=O)(=O)c3cn(C)cn3)cc2)C1 (stereo not drawn) [Example 99, 1-Methyl-1H-imidazole-4-sulfonic acid (4-chloro-benzyl)-[4-(3-methyl-pyrrolidine-1-carbonyl)-phenyl]-amide] | 
46 | O=C(c1ccc(N(Cc2cccc(OC(F)(F)F)c2)S(=O)(=O)c2ccccc2)cc1)N1CCN(c2ccccc2)CC1 [Example 37, N-[4-(4-Phenyl-piperazine-1-carbonyl)-phenyl]-N-(3-trifluoromethoxy-benzyl)-benzenesulfonamide] | 
61 | CC1CCCN(C(=O)c2ccc(N(Cc3ccc(Cl)cc3)S(=O)(=O)c3cn(C)cn3)cc2)C1 (stereo not drawn) [Example 92, 1-Methyl-1H-imidazole-4-sulfonic acid (4-chloro-benzyl)-[4-(3-methyl-piperidine-1-carbonyl)-phenyl]-amide] | 
78 | Cn1cnc(S(=O)(=O)N(Cc2ccccc2)c2ccc(C(=O)N3CCC(c4ccc(F)cc4)C3)cc2)c1 (stereo not drawn) [Example 82, 1-Methyl-1H-imidazole-4-sulfonic acid benzyl-{4-[3-(4-fluoro-phenyl)-pyrrolidine-1-carbonyl]-phenyl}-amide] | 
52 | Cn1cnc(S(=O)(=O)N(Cc2ccc(Cl)cc2)c2ccc(C(=O)N3CCC(F)(F)C3)cc2)c1 [Example 100, 1-Methyl-1H-imidazole-4-sulfonic acid (4-chloro-benzyl)-[4-(3,3-difluoro-pyrrolidine-1-carbonyl)-phenyl]-amide] | 
67 | CN(C)S(=O)(=O)N(Cc1ccccc1)c1ccc(C(=O)N2CCOC(c3ccccc3)C2)cc1F (stereo not drawn) [Example 73, N-Benzyl-N-[2-fluoro-4-(2-phenyl-morpholine-4-carbonyl)-phenyl]-N′,N′-dimethylsulfamide] | 
46 | Cn1ccc(S(=O)(=O)N(Cc2ccccc2)c2ccc(C(=O)N3CCNC(c4ccccc4)C3)cc2)n1 (stereo not drawn) [Example 88, 1-Methyl-1H-pyrazole-3-sulfonic acid benzyl-[4-(3-phenyl-piperazine-1-carbonyl)-phenyl]-amide] | 
57 | Cc1noc(C2CCCN(C(=O)c3ccc(N(Cc4ccccc4)S(=O)(=O)c4cn(C)cn4)cc3)C2)n1 (stereo not drawn) [Example 65, 1-Methyl-1H-imidazole-4-sulfonic acid benzyl-{4-[3-(3-methyl-[1,2,4]oxadiazol-5-yl)-piperidine-1-carbonyl]-phenyl}-amide] | 
42 | CC1CN(C(=O)c2ccc(N(Cc3ccccc3)S(=O)(=O)c3ccccc3)cc2)CC(C)O1 (stereo not drawn) [Example 56, N-Benzyl-N-[4-(2,6-dimethyl-morpholine-4-carbonyl)-phenyl]-benzenesulfonamide] | 
81 | O=C(c1ccc(N(Cc2ccccc2)S(=O)(=O)c2ccccc2)cc1)N1CCC(O)(c2ccccc2)CC1 [Example 58, N-Benzyl-N-[4-(4-hydroxy-4-phenyl-piperidine-1-carbonyl)-phenyl]benzenesulfonamide] | 
67 | Cc1ccc(C2CCCN(C(=O)c3ccc(N(Cc4ccc(Cl)cc4)S(=O)(=O)c4ccccc4)cc3)C2)cc1 (stereo not drawn) [Example 4, N-(4-Chloro-benzyl)-N-[4-(3-p-tolyl-piperidine-1-carbonyl)-phenyl]-benzenesulfonamide] | 
 | CN(C)S(=O)(=O)N(Cc1ccccc1)c1ccc(C(=O)N2CCC(OCc3ccccc3)C2)cc1 (stereo not drawn) [Example 70, N-Benzyl-N′N′-dimethyl-N-[4-(3-benzyloxy-pyrrolidine-1-carbonyl)-phenyl]-sulfamide] | 26
